Laboratory results: ChEMBL document CHEMBL1123958, “Synthesis and antiviral properties of (E)-5-(2-bromovinyl)-2'-deoxycytidine-related compounds” (J Med Chem, 1988)

Key:
Human alphaherpesvirus 1 [1] = experiment: Concentration required to reduce HSV-1 virus induced cytopathogenicity in rabbit cell kidney culture (F cells); format: functional, organism-based
Human alphaherpesvirus 2 [2] = experiment: Concentration required to reduce HSV-2 virus induced cytopathogenicity in rabbit cell kidney culture (Lyons cells); format: functional, organism-based
Oryctolagus cuniculus [3] = organism: Oryctolagus cuniculus; experiment: Minimum cytotoxic concentration causing microscopically detectable alteration of normal cell morphology of rabbit kideny cells; format: functional; parameters: unit not given here
Human alphaherpesvirus 2 [4] = experiment: Concentration required to reduce HSV-2 virus induced cytopathogenicity in rabbit cell kidney culture (196 cells); format: functional, organism-based
Human alphaherpesvirus 1 [5] = experiment: Concentration required to reduce HSV-1 virus induced cytopathogenicity in rabbit cell kidney culture (KOS cells); format: functional, organism-based
Human alphaherpesvirus 1 [6] = experiment: Concentration required to reduce HSV-1 virus induced cytopathogenicity in rabbit cell kidney culture (McIntyre cells); format: functional, organism-based
Human alphaherpesvirus 2 [7] = experiment: Concentration required to reduce HSV-2 virus induced cytopathogenicity in rabbit cell kidney culture (G cells); format: functional, organism-based
[8] = tested on: Vesicular stomatitis virus; experiment: Concentration required to reduce vesicular stomatitis virus induced cytopathogenicity in rabbit cell kidney culture; format: functional, organism-based
Oryctolagus cuniculus [9] = organism: Oryctolagus cuniculus; experiment: Minimum cytotoxic concentration causing microscopically detectable alteration of normal cell morphology of rabbit kidney cells; format: functional

SMILES	Concentration (Human alphaherpesvirus 1 [1])	Concentration (Human alphaherpesvirus 2 [2])	MCC (Oryctolagus cuniculus [3])	Concentration (Human alphaherpesvirus 2 [4])	Concentration (Human alphaherpesvirus 1 [5])	Concentration (Human alphaherpesvirus 1 [6])	Concentration (Human alphaherpesvirus 2 [7])	Concentration [8]	MCC (Oryctolagus cuniculus [9])
CC(=O)OC[C@H]1O[C@@H](n2cc(/C=C/Br)c(=O)[nH]c2=O)C[C@@H]1OC(C)=O	0.1 µg/mL	40 µg/mL	>300	100 µg/mL	0.1 µg/mL	0.2 µg/mL	20 µg/mL	> 300 µg/mL	–
CC(=O)OC[C@H]1O[C@@H](n2cc(/C=C/Br)c(-n3cncn3)nc2=O)C[C@@H]1OC(C)=O	0.2 µg/mL	20 µg/mL	–	20 µg/mL	0.1 µg/mL	0.07 µg/mL	20 µg/mL	> 200 µg/mL	–
O=c1[nH]c(=O)n([C@H]2C[C@H](O)[C@@H](CO)O2)cc1/C=C/Br [BRIVUDINE]	0.02 µg/mL	7 µg/mL	–	30 µg/mL	0.02 µg/mL	0.02 µg/mL	2 µg/mL	> 400 µg/mL	>400
Cc1cn(C2CC(O)C(CCl)O2)c(=O)nc1-n1cncn1 (stereo not drawn)	> 10 µg/mL	> 10 µg/mL	>10	> 10 µg/mL	> 10 µg/mL	> 10 µg/mL	> 10 µg/mL	> 10 µg/mL	–
Cc1cn([C@H]2C[C@H](O)[C@@H](CO)O2)c(=O)nc1-n1cncn1	> 40 µg/mL	20 µg/mL	–	20 µg/mL	> 40 µg/mL	20 µg/mL	20 µg/mL	> 40 µg/mL	–
Nc1nc(=O)n([C@H]2C[C@H](O)[C@@H](CO)O2)cc1/C=C/Br	0.2 µg/mL	> 400 µg/mL	>400	> 400 µg/mL	0.1 µg/mL	0.2 µg/mL	20 µg/mL	> 400 µg/mL	–
CC(=O)OC[C@H]1O[C@@H](n2cc(C)c(-n3cncn3)nc2=O)C[C@@H]1OC(C)=O	> 40 µg/mL	> 40 µg/mL	–	> 40 µg/mL	> 40 µg/mL	> 40 µg/mL	> 40 µg/mL	> 40 µg/mL	–
O=c1nc(-n2cncn2)c(/C=C/Br)cn1C1CC(O)C(CCl)O1 (stereo not drawn)	> 100 µg/mL	> 100 µg/mL	>100	> 100 µg/mL	70 µg/mL	> 100 µg/mL	> 100 µg/mL	> 100 µg/mL	–
O=c1nc(-n2cncn2)c(/C=C/Br)cn1[C@H]1C[C@H](O)[C@@H](CO)O1	0.07 µg/mL	70 µg/mL	–	> 200 µg/mL	0.07 µg/mL	0.1 µg/mL	20 µg/mL	> 200 µg/mL	–
